In BindingDB's records for doi:10.1016/j.bmcl.2011.10.035 (Sepuluh Nopember Institute of Technology, 2011) one finds IC50 data, which are given here for three molecules.

Molecules are shown by their SMILES. Where only a bound is given, the exact number is not on record here.

This test deals with Aldo-keto reductase family 1 member B1 (Homo sapiens, UniProt P15121). Kind of test: Inhibition of recombinant human aldose reductase using dl-glyceraldehyde as substrate after 10 mins by spectrophotometry.
For the molecule `CC(CC(=O)C[C@@H](C)[C@H]1CC(=O)[C@@]2(C)C3C(=O)C[C@H]4C(C)(C)[C@@H](O)CC[C@]4(C)C3C(=O)C(=O)[C@]12C)C(=O)O` (stereo partly drawn), the IC50 is above 193 µM. Next, `CC(=CC(=O)CC(C)C(=O)O)[C@H]1CC(=O)[C@@]2(C)C3=C(C(=O)C[C@]12C)[C@@]1(C)CCC(=O)C(C)(C)[C@@H]1C[C@@H]3O` (stereo partly drawn): above 195 µM; `CC(CC(=O)C[C@@H](C)[C@H]1CC(=O)[C@@]2(C)C3C(C(=O)C(=O)[C@]12C)[C@@]1(C)CC[C@H](O)C(C)(C)[C@@H]1C[C@@H]3O)C(=O)O` (stereo partly drawn): above 188 µM.
